Reference: publication PMC6777341 (ACS chemical neuroscience, 2017)
Marks after values point to notes of the source that are not given here. Each block holds one compound with its values, some of them ahead of it.

Legend:
[1] = molecular target: human NPFF2 receptor (Homo sapiens, UniProt Q9Y5X5); test: NPFF2 calcium mobilization assay; assay type: cell-based; details: for NPFF2 antagonist activity (in words): calcium mobilization assay; for Ca^2+ NPFF2 Ke: Table 1
[2] = molecular target: human NPFF1 receptor (Homo sapiens, UniProt Q9GZQ6); test: NPFF1 calcium mobilization assay; assay type: cell-based; details: for NPFF1 antagonist activity (in words) / NPFF1 Ke: calcium mobilization assay; for Ca^2+ NPFF1 Ke: Table 1
[3] = molecular target: human NPFFR1 (Homo sapiens, UniProt Q9GZQ6); test: Lance cAMP assay, NPFFR1-CHO cells; assay type: cell-based
[4] = molecular target: human NPFFR2 (Homo sapiens, UniProt Q9Y5X5); test: Lance cAMP assay, NPFFR2-CHO cells; assay type: cell-based
[5] = tested on: NPFF receptors; test: Curve-shift assays, type of antagonism; assay type: cell-based, human; details: standard incubation; typical competitive profile with longer incubations
[6] = apparent Ke from right shift of NPFF curve, 15 min pretreatment
[7] = footnote c: pre-incubation 45 min or 1 hr

Chain of human NPFF1 receptor (Q9GZQ6 whole entry): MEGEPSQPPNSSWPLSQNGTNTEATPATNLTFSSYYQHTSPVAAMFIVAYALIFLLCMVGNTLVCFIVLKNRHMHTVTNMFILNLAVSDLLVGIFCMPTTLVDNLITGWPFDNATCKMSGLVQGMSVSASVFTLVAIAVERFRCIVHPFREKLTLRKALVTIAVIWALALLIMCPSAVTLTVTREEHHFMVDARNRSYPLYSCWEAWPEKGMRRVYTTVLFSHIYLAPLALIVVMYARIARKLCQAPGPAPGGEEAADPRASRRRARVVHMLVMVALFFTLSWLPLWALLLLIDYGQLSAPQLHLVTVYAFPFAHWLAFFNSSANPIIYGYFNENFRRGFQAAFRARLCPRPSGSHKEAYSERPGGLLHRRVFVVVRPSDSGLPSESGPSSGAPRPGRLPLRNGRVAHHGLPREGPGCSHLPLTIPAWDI
Chain of human NPFFR1 (Q9GZQ6 whole entry): as above
Chain of human NPFF2 receptor (Q9Y5X5 whole entry): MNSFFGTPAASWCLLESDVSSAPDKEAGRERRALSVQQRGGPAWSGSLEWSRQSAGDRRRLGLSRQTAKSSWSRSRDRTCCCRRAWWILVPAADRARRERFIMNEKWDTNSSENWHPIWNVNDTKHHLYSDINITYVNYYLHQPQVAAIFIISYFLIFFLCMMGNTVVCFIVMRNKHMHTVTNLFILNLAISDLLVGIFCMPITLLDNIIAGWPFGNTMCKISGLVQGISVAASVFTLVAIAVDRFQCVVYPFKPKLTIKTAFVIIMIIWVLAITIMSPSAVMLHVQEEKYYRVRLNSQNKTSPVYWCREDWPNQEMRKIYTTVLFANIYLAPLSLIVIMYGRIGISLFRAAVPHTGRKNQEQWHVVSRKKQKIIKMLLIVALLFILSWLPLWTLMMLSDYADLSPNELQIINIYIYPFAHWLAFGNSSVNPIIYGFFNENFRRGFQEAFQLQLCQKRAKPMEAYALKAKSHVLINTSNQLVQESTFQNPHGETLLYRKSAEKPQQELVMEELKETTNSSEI
Chain of human NPFFR2 (Q9Y5X5 whole entry): as above

SMILES: CCC(C)NC(=O)[C@@H]1C[C@H](NCc2ccc(OC)cc2)CN1Cc1ccccc1Cl (stereo partly drawn) [Compound 14, (2S,4S)-N-(Butan-2-yl)-1-[(2-chlorophenyl)methyl]-4-{[(4-methoxyphenyl)methyl]amino} pyrrolidine-2-carboxamide]
Ca^2+ NPFF2 Ke [1, 6]: 3.68 ± 0.35^b μM
Ca^2+ NPFF1 Ke [2, 6]: 1.50 ± 0.06 µM

SMILES: COc1ccc(CN[C@H]2C[C@@H](C(=O)NC(C)(C)C)N(Cc3ccccc3Cl)C2)cc1 [Compound 15, (2S,4S)-N-tert-Butyl-1-[(2-chlorophenyl)methyl]-4-{[(4-methoxyphenyl)methyl]amino} pyrrolidine-2-carboxamide]
Ca^2+ NPFF2 Ke [1, 7]: 1.26 ± 0.8^c μM
Ca^2+ NPFF1 Ke [2, 6]: 1.88 ± 0.21 µM

SMILES: CCCCCCNC(=O)[C@@H]1C[C@H](NCc2ccc(OC)cc2)CN1Cc1ccccc1Cl [Compound 18, (2S,4S)-1-[(2-Chlorophenyl)methyl]-4-{[(4-methoxyphenyl)methyl]amino}-N-hexylpyrrolidine-2-carboxamide]
Kb [3]: 1980 ± 280 nM
Kb [4]: 2480 ± 270 nM

SMILES: CCCCCCCCCCNC(=O)[C@@H]1C[C@H](NCc2ccc(OC)cc2)CN1Cc1ccccc1Cl [Compound 19, (2S,4S)-1-[(2-Chlorophenyl)methyl]-N-decyl-4-{[(4-methoxyphenyl)methyl]amino} pyrrolidine-2-carboxamide]
Ca^2+ NPFF1 Ke [2, 7]: >10^b,c μM
NPFF1 antagonist activity (in words) [2]: completely abolished

SMILES: CCN(CC)C(=O)[C@@H]1C[C@H](NCc2ccc(OC)cc2)CN1Cc1ccccc1Cl [Compound 22, (2S,4S)-1-[(2-Chlorophenyl)methyl]-N,N-diethyl-4-{[(4-methoxyphenyl)methyl]amino} pyrrolidine-2-carboxamide]
NPFF2 antagonist activity (in words) [1]: inactive
Ca^2+ NPFF1 Ke [2, 6]: >10^b μM
NPFF1 antagonist activity (in words) [2]: inactive

SMILES: COc1ccc(CN[C@H]2C[C@@H](C(=O)NCCc3ccc(OC)c(OC)c3)N(Cc3ccccc3Cl)C2)cc1 [Compound 27, (2S,4S)-1-[(2-Chlorophenyl)methyl]-N-[2-(3,4-dimethoxyphenyl)ethyl]-4-{[(4-methoxyphenyl)methyl]amino}pyrrolidine-2-carboxamide]
Kb [3]: 1520 ± 110 nM
Kb [4]: > 10000 nM

SMILES: COc1ccc(CN[C@H]2C[C@@H](C(=O)NCCc3ccc(C(C)(C)C)cc3)N(Cc3ccccc3Cl)C2)cc1 [Compound 31, (2S,4S)-N-[2-(4-tert-Butylphenyl)ethyl]-1-[(2-chlorophenyl)methyl]-4-{[(4-methoxyphenyl)methyl]amino}pyrrolidine-2-carboxamide]
Kb [1]: 2420 ± 260 nM

SMILES: CCN(CC)C(=O)[C@@H]1C[C@H](NCc2ccc(OC)cc2)CN1Cc1ccccc1Cl [Compound 40, (2S,4S)-1-[(2-Chlorophenyl)methyl]-N,N-diethyl-4-{[(4-methoxyphenyl)methyl]amino} pyrrolidine-2-carboxamide]
Ca^2+ NPFF2 Ke [1, 6]: 4.93 ± 0.02^b μM
Ca^2+ NPFF1 Ke [2, 6]: 2.90 ± 0.15 µM
NPFF1 Ke [2]: 2.90 µM

SMILES: CCCN(CCC)C(=O)[C@@H]1C[C@H](NCc2ccc(OC)cc2)CN1Cc1ccccc1Cl [Compound 41, (2S,4S)-1-[(2-Chlorophenyl)methyl]-4-{[(4-methoxyphenyl)methyl]amino}-N,N-dipropylpyrrolidine-2-carboxamide]
type of antagonism in curve-shift assays [5]: insurmountable antagonism
Kb [3]: 2310 ± 420 nM
Kb [4]: > 10000 nM

SMILES: CCCCCNC(=O)[C@@H]1C[C@H](NCc2ccc(SC)cc2)CN1Cc1ccccc1Cl [Compound 43, (2S,4S)-1-[(2-Chlorophenyl)methyl]-4-{[(4-(methylthio)phenyl)methyl]amino}-N-pentylpyrrolidine-2-carboxamide]
Kb [3]: 1070 ± 200 nM
Kb [4]: 2740 ± 210 nM

SMILES: CSc1ccc(CN[C@H]2C[C@@H](C(=O)NCCc3ccc(F)c(F)c3)N(Cc3ccccc3Cl)C2)cc1 [Compound 47, (2S,4S)-1-[(2-Chlorophenyl)methyl]-N-[2-(3,4-difluorophenyl)ethyl]-4-{[(4-(methylthio)phenyl)methyl]amino}pyrrolidine-2-carboxamide]
Kb [3]: 1070 ± 270 nM
Kb [4]: > 10000 nM

The remaining lines, values ahead:

NPFF2 antagonist activity (in words) [1]: inactive
NPFF1 antagonist activity (in words) [2]: inactive
SMILES: CNC(=O)[C@@H]1C[C@H](NCc2ccc(OC)cc2)CN1Cc1ccccc1Cl [Compound 10, (2S,4S)-1-[(2-Chlorophenyl)methyl]-4-{[(4-methoxyphenyl)methyl]amino}-N-methylpyrrolidine-2-carboxamide]

Ca^2+ NPFF2 Ke [1, 6]: >10^b μM
NPFF2 antagonist activity (in words) [1]: inactive
Ca^2+ NPFF1 Ke [2, 6]: >10^b μM
NPFF1 Ke [2]: > 10 µM
NPFF1 antagonist activity (in words) [2]: inactive
SMILES: CCNC(=O)[C@@H]1C[C@H](NCc2ccc(OC)cc2)CN1Cc1ccccc1Cl [Compound 11, (2S,4S)-1-[(2-Chlorophenyl)methyl]-N-ethyl-4-{[(4-methoxyphenyl)methyl]amino} pyrrolidine-2-carboxamide]

Ca^2+ NPFF1 Ke [2, 6]: 1.24 ± 0.14 µM
SMILES: CCCCNC(=O)[C@@H]1C[C@H](NCc2ccc(OC)cc2)CN1Cc1ccccc1Cl [Compound 13, (2S,4S)-N-Butyl-1-[(2-chlorophenyl)methyl]-4-{[(4-methoxyphenyl)methyl]amino} pyrrolidine-2-carboxamide]

Ca^2+ NPFF2 Ke [1, 7]: 2.01 ± 0.44^c μM
type of antagonism in curve-shift assays [5]: insurmountable antagonism
Ca^2+ NPFF1 Ke [2, 7]: 0.78 ± 0.08^c μM
NPFF1 Ke [2]: 0.78 µM
cAMP NPFF1 Ke ([3]; Table 1): 1.72 ± 0.32 µM
cAMP NPFF2 Ke ([4]; Table 1): 3.90 ± 1.1 µM
SMILES: COc1ccc(CN[C@H]2C[C@@H](C(=O)NCc3ccccc3)N(Cc3ccccc3Cl)C2)cc1 [Compound 23, (2S,4S)-N-Benzyl-1-[(2-chlorophenyl)methyl]-4-{[(4-methoxyphenyl)methyl]amino} pyrrolidine-2-carboxamide]

Kb [1]: 2340 ± 310 nM
SMILES: COc1ccc(CN[C@H]2C[C@@H](C(=O)NCCc3ccccc3)N(Cc3ccccc3Cl)C2)cc1 [Compound 24, (2S,4S)-1-[(2-Chlorophenyl)methyl]-4-{[(4-methoxyphenyl)methyl]amino}-N-(2-phenylethyl)pyrrolidine-2-carboxamide]

IC50 [2]: > 10000 nM
NPFF1 antagonist activity (in words) [2]: completely abolished the activity
SMILES: COc1ccc(CN[C@H]2C[C@@H](C(=O)NCCCc3ccccc3)N(Cc3ccccc3Cl)C2)cc1 [Compound 25, (2S,4S)-1-[(2-Chlorophenyl)methyl]-4-{[(4-methoxyphenyl)methyl]amino}-N-(3-phenylpropyl)pyrrolidine-2-carboxamide]

Kb [1]: 2080 ± 380 nM
SMILES: COc1ccc(CN[C@H]2C[C@@H](C(=O)NCCc3ccc(N(C)C)cc3)N(Cc3ccccc3Cl)C2)cc1 [Compound 28, (2S,4S)-1-[(2-Chlorophenyl)methyl]-N-{2-[4-(dimethylamino)phenyl]ethyl}-4-{[(4-methoxyphenyl)methyl]amino}pyrrolidine-2-carboxamide]

Kb [1]: 1830 ± 90 nM
type of antagonism in curve-shift assays [5]: insurmountable antagonism
Kb [2]: 990 ± 220 nM
Kb [3]: 1490 ± 100 nM
Kb [4]: 2530 ± 360 nM
SMILES: COc1ccc(CN[C@H]2C[C@@H](C(=O)NCCc3ccc(Cl)cc3)N(Cc3ccccc3Cl)C2)cc1 [Compound 32, (2S,4S)-N-[2-(4-Chlorophenyl)ethyl]-1-[(2-chlorophenyl)methyl]-4-{[(4-methoxyphenyl)methyl]amino}pyrrolidine-2-carboxamide]

Kb [1]: 3490 ± 1400 nM
SMILES: COc1ccc(CN[C@H]2C[C@@H](C(=O)NCCc3ccc(F)c(F)c3)N(Cc3ccccc3Cl)C2)cc1 [Compound 34, (2S,4S)-1-[(2-Chlorophenyl)methyl]-N-[2-(3,4-difluorophenyl)ethyl]-4-{[(4-methoxyphenyl)methyl]amino}pyrrolidine-2-carboxamide]

Kb [3]: 1410 ± 180 nM
Kb [4]: > 10000 nM
SMILES: COc1ccc(CN[C@H]2C[C@@H](C(=O)NCCc3ccc(F)cc3)N(Cc3ccccc3Cl)C2)cc1 [Compound 35, (2S,4S)-1-[(2-Chlorophenyl)methyl]-N-[2-(4-fluorophenyl)ethyl]-4-{[(4-methoxyphenyl)methyl]amino}pyrrolidine-2-carboxamide]

type of antagonism in curve-shift assays [5]: insurmountable antagonism
SMILES: COc1ccc(CN[C@H]2C[C@@H](C(=O)N3CCN(c4ccccc4)CC3)N(Cc3ccccc3Cl)C2)cc1 [Compound 42, (3S,5S)-1-[(2-Chlorophenyl)methyl]-N-[(4-methoxyphenyl)methyl]-5-(4-phenylpiperazine-1-carbonyl)pyrrolidin-3-amine]

Kb [3]: 1300 ± 140 nM
Kb [4]: > 10000 nM
SMILES: CSc1ccc(CN[C@H]2C[C@@H](C(=O)NCCc3ccccc3)N(Cc3ccccc3Cl)C2)cc1 [Compound 44, (2S,4S)-1-[(2-Chlorophenyl)methyl]-4-{[(4-(methylthio)phenyl)methyl]amino}-N-(2-phenylethyl)pyrrolidine-2-carboxamide]
